Tested on: PMA-stimulated P90RSK(Ser380) phosphorylation in HepG2 cells
Experiment: Cellular P90RSK(Ser380) Phosphorylation Assay
Assay type: cell-based
Settings: Homo sapiens, read-out: Biological Example 2 IC50 (nM), 1.5 hours compound incubation, PMA 100 ng/mL 30 minutes, normalized to GAPDH, single assay or mean of multiple assays
Description: Inhibition of PMA-stimulated P90RSK(Ser380) phosphorylation was determined by the following in vitro cellular mechanistic assay, which comprises incubating cells with a compound for 1.5 hours and quantifying fluorescent pP90RSK(Ser380) signal on fixed cells and normalizing to GAPDH signal.
HepG2 cells were obtained from ATCC and grown in DMEM supplemented with 10% fetal bovine serum. Cells were plated in 96-well plates at 35,000 cells/well and allowed to attach overnight at 37° C./5% CO2. Diluted compounds were then added at a final concentration of 0.5% DMSO. After 1.5 hours compound incubation, cells were stimulated with the addition of phorbol 12-myristate 13-acetate (“PMA”) at a final concentration of 100 ng/mL; the PMA stimulation was a 30-minute incubation at 37° C./5% CO2. After the 30-minute PMA stimulation, cells were washed with phosphate buffered saline (“PBS”) and fixed in 3.7% formaldehyde in PBS at room temperature for 15-20 minutes. This was followed by another wash in PBS and then permeabilization in 100% MeOH at room temperature for 10-15 minutes. Following the permeabilization incubation, cells were washed in PBS/0.05% Tween-20, followed by a block in Odyssey blocking buffer (LI-COR Biosciences) for at least 1 hour. […] Both secondary antibodies were used at a 1:1000 dilution. Cells were then washed and analyzed for fluorescence at both wavelengths using the Odyssey Infrared Imaging System (LI-COR Biosciences). Phosphorylated P90RSK(Ser380) signal was normalized to GAPDH signal.

| SMILES | IC50 [nM] |
| --- | --- |
| O=c1cc(-c2ccnc(NC3CCOCC3)n2)ccn1[C@H](CO)c1ccc(Cl)c(F)c1 [Example 1, (S)-1-(1-(4-chloro-3-fluorophenyl)-2-hydroxyethyl)-4-(2-((tetrahydro-2H-pyran-4-yl)amino)pyrimidin-4-yl)pyridin-2(1H)-one] | 31.9 |
| O=c1cc(-c2ccnc(N[C@H]3CCOC[C@H]3F)n2)ccn1[C@H](CO)c1ccc(Cl)c(F)c1 [Example 2, 1-((S)-1-(4-chloro-3-fluorophenyl)-2-hydroxyethyl)-4-(2(((3S,4S)-3-fluorotetrahydro-2H-pyran-4-yl)amino)pyrimidin-4-yl)pyridin-2(1H)-one] | 59.1 |
| O=c1cc(-c2ccnc(N[C@@H]3CCOC[C@H]3F)n2)ccn1[C@H](CO)c1ccc(Cl)c(F)c1 [Example 3, 1-((S)-1-(4-chloro-3-fluorophenyl)-2-hydroxyethyl)-4-(2-(((3S,4R)-3-fluorotetrahydro-2H-pyran-4-yl)amino)pyrimidin-4-yl)pyridin-2(1H)-one] | 40.3 |
| O=c1cc(-c2ccnc(N[C@H]3CCOC[C@H]3F)n2)ccn1[C@H](CO)c1ccc(Cl)c(Cl)c1 [Example 4, 1-((S)-1-(3,4-dichlorophenyl)-2-hydroxyethyl)-4-(2-(((3S,4S)-3-fluorotetrahydro-2H-pyran-4-yl)amino)pyrimidin-4-yl)pyridin-2(1H)-one] | 8.5 |
| Cn1nccc1Nc1nccc(-c2ccn([C@H](CO)c3ccc(Cl)c(F)c3)c(=O)c2)n1 [Example 39, (S)-1-(1-(4-chloro-3-fluorophenyl)-2-hydroxyethyl)-4-(2-((1-methyl-1H-pyrazol-5-yl)amino)pyrimidin-4-yl)pyridin-2(1H)-one] | 15.5 |
| O=c1cc(-c2ccnc(N[C@@H]3C[C@@H]4C[C@H]3CO4)n2)ccn1[C@H](CO)c1ccc(Cl)c(F)c1 [Example 42, 4-(2-((1S,4R,5R)-2-oxabicyclo[2.2.1]heptan-5-ylamino)pyrimidin-4-yl)-1-((S)-1-(4-chloro-3-fluorophenyl)-2-hydroxyethyl)pyridin-2(1H)-one] | 74 |
| COc1ccc([C@@H]([C@H]2CCCN2)n2ccc(-c3ccnc(NC4CCOCC4)n3)cc2=O)cc1F [Example 50, 1-((S)-(3-fluoro-4-methoxyphenyl)((R)-pyrrolidin-2-yl)methyl)-4-(2-((tetrahydro-2H-pyran-4-yl)amino)pyrimidin-4-yl)pyridin-2(1H)-one] | 292 |
| O=c1cc(-c2ccnc(NC3CCOCC3)n2)ccn1[C@H](CO)c1cccc(Cl)c1 [Example 57, (S)-1-(1-(3-chlorophenyl)-2-hydroxyethyl)-4-(2-((tetrahydro-2H-pyran-4-yl)amino)pyrimidin-4-yl)pyridin-2(1H)-one] | 1770 |
| C[C@@H](CO)Nc1nccc(-c2ccn(C(CO)c3cccc(Cl)c3)c(=O)c2)n1 (stereo partly drawn) [Example 58, 1-(1-(3-chlorophenyl)-2-hydroxyethyl)-4-(2-(((S)-1-hydroxypropan-2-yl)amino)pyrimidin-4-yl)pyridin-2(1H)-one] | 708 |
| C[C@@H](CO)Nc1nccc(-c2ccn(C(CO)c3ccc(F)c(Cl)c3)c(=O)c2)n1 (stereo partly drawn) [Example 60, 1-(1-(3-chloro-4-fluorophenyl)-2-hydroxyethyl)-4-(2-(((S)-1-hydroxypropan-2-yl)amino)pyrimidin-4-yl)pyridin-2(1H)-one] | 1610 |
| O=c1cc(-c2ccnc(NC3CCOCC3)n2)ccn1C(c1ccc(Cl)c(F)c1)[C@@H]1CCCN1 (stereo partly drawn) [Example 102, 1-((4-chloro-3-fluorophenyl)((S)-pyrrolidin-2-yl)methyl)-4-(2-((tetrahydro-2H-pyran-4-yl)amino)pyrimidin-4-yl)pyridin-2(1H)-one] | > 5000 |
| CC[C@@H](CO)Nc1nccc(-c2ccn(C(C)c3ccc(Cl)c(F)c3)c(=O)c2)n1 (stereo partly drawn) [Example 134, 1-(1-(4-chloro-3-fluorophenyl)ethyl)-4-(2-(((S)-1-hydroxybutan-2-yl)amino)pyrimidin-4-yl)pyridin-2(1H)-one] | 544 |
| CCc1nccc(Nc2nccc(-c3ccn(C(CO)c4ccc(Cl)c(F)c4)c(=O)c3)n2)n1 (stereo not shown) [Example 139, 1-(1-(4-chloro-3-fluorophenyl)-2-hydroxyethyl)-4-(2-((2-ethylpyrimidin-4-yl)amino)pyrimidin-4-yl)pyridin-2(1H)-one] | 372 |
| O=c1cc(-c2ccnc(NC3CCOCC3)n2)ccn1CCc1ccc(OC(F)(F)F)cc1 [Example 157, 4-(2-((tetrahydro-2H-pyran-4-yl)amino)pyrimidin-4-yl)-1-(4-(trifluoromethoxy)phenethyl)pyridin-2(1H)-one] | 46.3 |
| Cc1nn(C)cc1Nc1nccc(-c2ccn(C(CO)c3ccc(Cl)c(F)c3)c(=O)c2)n1 (stereo not shown) [Example 166, 1-(1-(4-chloro-3-fluorophenyl)-2-hydroxyethyl)-4-(2-((1,3-dimethyl-1H-pyrazol-4-yl)amino)pyrimidin-4-yl)pyridin-2(1H)-one] | 12.9 |
| Cc1cc(Nc2nccc(-c3ccn([C@H](CO)c4ccc(Cl)c(F)c4)c(=O)c3)n2)n(C)n1 [Example 167, (S)-1-(1-(4-chloro-3-fluorophenyl)-2-hydroxyethyl)-4-(2-((1,3-dimethyl-1H-pyrazol-5-yl)amino)pyrimidin-4-yl)pyridin-2(1H)-one] | 100 |
| C=C(c1ccc(Cl)c(F)c1)n1ccc(-c2ccnc(Nc3ccnc(C)c3)n2)cc1=O [Example 172, 1-(1-(4-chloro-3-fluorophenyl)vinyl)-4-(2-((2-methylpyridin-4-yl)amino)pyrimidin-4-yl)pyridin-2(1H)-one] | 12.9 |
| CCn1cc(Nc2nccc(-c3ccn([C@H](CO)c4ccc(Cl)c(F)c4)c(=O)c3)n2)c(C)n1 [Example 173, (S)-1-(1-(4-chloro-3-fluorophenyl)-2-hydroxyethyl)-4-(2-((1-ethyl-3-methyl-1H-pyrazol-4-yl)amino)pyrimidin-4-yl)pyridin-2(1H)-one] | 110 |
| Cc1nc[nH]c1Nc1nccc(-c2ccn([C@H](CO)c3ccc(Cl)c(F)c3)c(=O)c2)n1 [Example 185, (S)-1-(1-(4-chloro-3-fluorophenyl)-2-hydroxyethyl)-4-(2-((4-methyl-1H-imidazol-5-yl)amino)pyrimidin-4-yl)pyridin-2(1H)-one] | 19.6 |
| Cn1cc(C(c2ccc(Cl)c(Cl)c2)n2ccc(-c3nc(NC4CCOCC4)ncc3F)cc2=O)cn1 (stereo not shown) [Example 209, 1-((3,4-dichlorophenyl)(1-methyl-1H-pyrazol-4-yl)methyl)-4-(5-fluoro-2-((tetrahydro-2H-pyran-4-yl)amino)pyrimidin-4-yl)pyridin-2(1H)-one] | 6.7 |
| O=c1cc(-c2ccnc(NC3CCOCC3)n2)ccn1Cc1cc2ccc(Cl)cc2[nH]1 [Example 250, 1-((6-chloro-1H-indol-2-yl)methyl)-4-(2-((tetrahydro-2H-pyran-4-yl)amino)pyrimidin-4-yl)pyridin-2(1H)-one] | 15.2 |
| O=c1cc(-c2ccnc(NC3CCOCC3)n2)ccn1Cc1cc2c(F)cccc2[nH]1 [Example 266, 1-((4-fluoro-1H-indol-2-yl)methyl)-4-(2-((tetrahydro-2H-pyran-4-yl)amino)pyrimidin-4-yl)pyridin-2(1H)-one] | 8.6 |
| O=c1cc(-c2ccnc(NC3CCOCC3)n2)ccn1Cc1cc(F)c2cc[nH]c2c1 [Example 289, 1-((4-fluoro-1H-indol-6-yl)methyl)-4-(2-((tetrahydro-2H-pyran-4-yl)amino)pyrimidin-4-yl)pyridin-2(1H)-one] | 20.4 |
| CC(C)(N)C(=O)OC[C@H](c1ccc(Cl)c(F)c1)n1ccc(-c2ccnc(NC3CCOCC3)n2)cc1=O [Example 290, (S)-2-(4-chloro-3-fluorophenyl)-2-(2-oxo-4-(2-((tetrahydro-2H-pyran-4-yl)amino)pyrimidin-4-yl)pyridin-1(2H)-yl)ethyl 2-amino-2-methylpropanoate] | 26.5 |
| O=c1cc(-c2ccnc(NC3CCOCC3)n2)ccn1[C@H](CO)c1cc2cc(F)ccc2[nH]1 [Example 291, (S)-1-(1-(5-fluoro-1H-indol-2-yl)-2-hydroxyethyl)-4-(2-((tetrahydro-2H-pyran-4-yl)amino)pyrimidin-4-yl)pyridin-2(1H)-one] | 55.9 |
| CC(=O)OC[C@H](c1ccc(Cl)c(F)c1)n1ccc(-c2ccnc(Nc3ccnn3C)n2)cc1=O [Example 293, (S)-2-(4-chloro-3-fluorophenyl)-2-(4-(2-((1-methyl-1H-pyrazol-5-yl)amino)pyrimidin-4-yl)-2-oxopyridin-1(2H)-yl)ethyl acetate] | 16.8 |
| C=C(c1ccc(Cl)c(F)c1)n1ccc(-c2ccnc(Nc3ccnn3CC)n2)cc1=O [Example 295, 1-(1-(4-chloro-3-fluorophenyl)vinyl)-4-(2-((1-ethyl-1H-pyrazol-5-yl)amino)pyrimidin-4-yl)pyridin-2(1H)-one] | 204 |
| NC[C@H](c1ccc(Cl)c(F)c1)n1ccc(-c2ccnc(NC3CCOCC3)n2)cc1=O [Example 305, (S)-1-(2-amino-1-(4-chloro-3-fluorophenyl)ethyl)-4-(2-((tetrahydro-2H-pyran-4-yl)amino)pyrimidin-4-yl)pyridin-2(1H)-one] | 53 |
